Structures can show the parent of a compound that is named as a salt.
How the values were obtained:
LPS induced hypotension = test: Endotoxin (LPS) induced hypotension in rats; format: in vivo, rat (male Wistar); conditions: anesthetized rats; 10 ug/kg intraarterially 5 minutes after LPS 15 mg/kg I.V.
Method: Bacterial cell wall lipopolysaccharide from E. coli strain 0111:B4 (Sigma #L-2630) was dissolved in saline at a concentration of 3.75 mg/ml and administered to rats at 15 mg/kg I.V. Test compounds were dissolved in saline at 1 mg/ml, diluted to 10 ug/ml, and injected intraarterially at 1 ml/kg (10 ug/kg). Male wistar strain rats were obtained from Charles River Labs and maintained according to ALAC standards. They were anesthetized with 30 mg/kg pentobarbital ip with supplementation as needed. The throat was opened, the left carotid artery was cannulated with PE-10 tubing and the trachea cannulated with 0.100 O.D. tubing. Ventilation was maintained by a Harvard Apparatus small animal pump at a rate sufficient to nearly abolish spontaneous respiration.

PAF receptor [1] = biological target: T1, PAF receptor (Homo sapiens, UniProt P25105); test: Inhibition of PAF-induced aggregation in human platelet rich plasma; format: cell-based; conditions: PAF challenge 1E-6M, number of experiments in parentheses
T1 construct: Blood from healthy volunteers was collected; endogenous in cells; host or cells: human platelets (healthy volunteers)
Method: (§1) Test compounds were evaluated as PAF receptor antagonists in vitro by measuring inhibition of PAF (platelet activating factor) induced platelet aggregation. Platelet aggregation was measured by a modification of the method described in A. Wissner, et. al., J. Med. Chem., 27, 1174, 1984.
(§2) L-PAF was obtained from Calbiochem. A stock solution of 1-2 E-3M was prepared in 10% ethanol in water or 100% methanol and serial working dilutions were made using phosphate buffered saline (PBS). 1-2 E-3M stock solutions of test compounds were prepared in 100% methanol and serially diluted in PBS. All solutions were made up in plastic tubes, stored on ice and protected from heat and light. Solutions were prepared fresh or frozen at -20° C. and used within 48 hours.
(§3) Incubation mixtures consisted of 400 μl PRP, 50 μl of PBS diluent or test compound and 50 μl of PAF agonist. More specifically, 400 μl of PRP was stabilized in a cuvette for 1-2 minutes at 37° C. in the aggregometer to achieve a stable baseline, then 50 μl of PBS or test compound, was added and incubated for 5 minutes before addition of the challenge concentration of PAF (final concentration of 5E-8M or 1E-7M, as determined from the dose response curve for PAF for that experiment). Aggregation was monitored for 5 minutes. Samples containing test compound or diluent were run simultaneously for comparison. Test compounds were initially evaluated at a screening concentration of 1E-5M.
(§4) The recording equipment consisted of a dual channel Chronolog aggregometer connected to a dual channel 10 MV full scale deflection Omniscribe chart recorder (Houston Instruments). […] The bead suspension was used to set the 0% light transmission mark and clear water was used to set the 100% light transmission mark. These limits defined a full scale deflection. The aggregation traces were analyzed by a digitizing method (C. Kohler and B. Zoltan, J. Pharm. Methods, 12, 113, 1984) with x, y coordinate data stored in a computer file. A suitable program computed parameters of interest such as the magnitude of aggregation.
In some experiments, human PRP was used instead of rabbit PRP. Blood from healthy volunteers was collected in Vacutainers® containing the Na citrate diluent and processed in a manner similar to rabbit blood to obtain the PRP. For these experiments, the challenge concentration of PAF was 1E-6M.

[2] = tested on: endotoxin induced mortality; test: Endotoxin induced shock and mortality in mice; format: in vivo, mouse (male Balb/c)
Text: The test compounds (PAF antagonists) were also efficacious when administered iv prior to a lethal iv injection of endotoxin (Table IX).

PAF receptor [3] = biological target: T2, PAF receptor (Oryctolagus cuniculus, UniProt G1TEI7); test: Inhibition of PAF-induced aggregation in washed rabbit platelets; format: cell-based; conditions: PAF challenge 5E-9M, number of experiments in parentheses
T2 construct: endogenous in cells; host or cells: rabbit platelets (male New Zealand White)
Method: as §1, §2
as §3, with “More” for “Incubation mixtures consisted of 400 μl PRP, 50 μl of PBS diluent or test compound and 50 μl of PAF agonist. More”, “400 μl of PRP was stabilized in a cuvette” left out, “1E-5M. […]” for “1E-5M.”

PAF receptor [4] = biological target: T2, PAF receptor; test: Inhibition of PAF-induced aggregation in rabbit platelet rich plasma; format: cell-based, rabbit (male New Zealand White); conditions: rabbit platelet rich plasma; PAF challenge 5E-8M; number of experiments in parentheses; read-out: IC50 inhibition of PAF-induced aggregation
Method: as §1
Approximately 120-240 ml of blood were collected by cardiac puncture from unanesthetized male New Zealand White rabbits (Whaley's Summit View Farms, Belvedere, N.J.) with the use of 3.2% sodium citrate anticoagulant (1 part of citrate/10 parts of blood). All syringes and pipets were plastic. The blood was gently mixed and immediately centrifuged at 800 rpm for 10-15 minutes at room temperature to recover the platelet rich plasma (PRP). Platelet poor plasma (PPP) was prepared by centrifuging PRP at 2800 rpm for 10 minutes at room temperature.
Dilutions (1:3000) of PRP in Isoton® diluent were made and platelet counts were determined on a Coulter Thrombocounter which was standardized with platelet reference standards (Interscience Platelet Control, Portland, Oreg.). PRP platelet counts were adjusted to approximately 400,000-500,000 platelets/μl by the addition of PPP.
as §2, §3, §4

PAF induced lethality = PAF induced lethality in mice; format: in vivo; conditions: I.P. 10 mg/kg; corrected for control lethality
Method: PAF given I.V. to mice causes an immediate hypotensive shock leading to death in 1 hour or less. Compounds were given intraperitoneally or P.O. at various times before the PAF challenge. Animals alive after 2 hours were counted and the activity of test compounds expressed as % survival corrected for any control (saline treated) animals which survived the PAF challenge.

T2 sequence (G1TEI7 1-342): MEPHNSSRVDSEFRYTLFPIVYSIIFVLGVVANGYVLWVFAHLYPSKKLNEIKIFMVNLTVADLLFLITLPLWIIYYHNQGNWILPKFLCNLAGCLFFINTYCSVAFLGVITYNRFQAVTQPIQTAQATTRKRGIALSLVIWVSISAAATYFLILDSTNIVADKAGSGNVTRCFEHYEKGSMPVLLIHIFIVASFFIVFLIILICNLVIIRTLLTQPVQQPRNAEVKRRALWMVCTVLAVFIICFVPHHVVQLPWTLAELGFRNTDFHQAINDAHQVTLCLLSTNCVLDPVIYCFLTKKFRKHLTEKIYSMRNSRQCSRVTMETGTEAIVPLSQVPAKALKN
T1 sequence (P25105 whole entry): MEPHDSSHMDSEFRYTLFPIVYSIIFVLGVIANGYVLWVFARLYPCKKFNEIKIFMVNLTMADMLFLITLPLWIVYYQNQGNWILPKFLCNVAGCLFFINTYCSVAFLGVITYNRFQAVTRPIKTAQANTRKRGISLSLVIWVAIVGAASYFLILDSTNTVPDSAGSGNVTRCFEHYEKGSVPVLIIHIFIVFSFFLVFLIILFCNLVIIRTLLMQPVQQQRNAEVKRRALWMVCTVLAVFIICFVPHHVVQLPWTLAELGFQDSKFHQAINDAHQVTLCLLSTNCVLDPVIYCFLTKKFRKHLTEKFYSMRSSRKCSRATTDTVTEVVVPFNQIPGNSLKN

CCCCCCCCCCCCCCOc1cccc(OP(=O)([O-])Oc2cccc(C[n+]3csc(C)c3)c2)c1OC [3-[[3-[[Hydroxy[2-methoxy-3-(tetradecyloxy)phenoxy]-phosphinyl]oxy]phenyl]methyl]-5-methyl-thiazolium, hydroxide, inner salt]
% reversal of LPS induced hypotension (fall in mean arterial pressure) (LPS induced hypotension): 84%
IC50 (PAF receptor [1]): 31000 nM
24 hour survival, treated ([2]; 40 mg/kg IP 2 hours prior to IP endotoxin): 13/50
Survival after 24 hrs., treated ([2]; Table IX, 20 mg/kg iv prior to iv endotoxin, footnote prints IP, control 3/40): 14/40
IC50 (PAF receptor [3]): 5.49 nM
IC50 (PAF receptor [4]): 2510 nM
PAF induced lethality, % protection (PAF induced lethality): 17%
